This is an account of results in patent US12358921B2, “Antiviral heterocyclic compounds” (priority 2022, dated 2025).

Where only a bound is given, the exact number is not on record here.

Test [1] concerns HUMAN RSV-A (“LONG” STRAIN). Briefly: RSV-A assay (CPE, ATPlite) in Hep-2 cells. Conditions: human respiratory syncytial virus, 120 h, MOI 0.1, 5-day incubation. The class given is cell-based. The source says: Methods for RSV-A Assay Hep-2 cells, (originally derived from tumors grown in irradiated-cortisonised weanling rats that had been injected with epidermoid carcinoma tissue from the larynx of a person, but later found to be indistinguishable from HeLa cells by PCR DNA analysis), were used for the culturing of genotype A, “Long” strain RSV. Flasks were inoculated with RSV and viral stocks were collected once cytopathic effect (CPE) was greater than 90%. Viral stocks in 25% sucrose media were snap frozen using liquid nitrogen to increase viral stability. Viral stock titers were quantified by tissue culture infectious dose 50% (TCID50) using 8,000 cells per well and 3-fold viral dilutions across a 96-well plate, cultured for 4 days. Viral stock titers were also quantified by a plaque forming unit assay, as described elsewhere.
Following extensive parameter testing, the final assay is run as follows: Hep-2 cells are seeded into the inner 60 wells of a 96-well plate at 8,000 cells per well in a volume of 50 μL using Growth Media (DMEM without phenol red, 1% L-Glut, 1% Penn/Strep, 1% nonessential amino acids, 10% heat-inactivated FBS). 2-fold serial dilutions of control and test compounds are added to the wells in duplicate in a total volume of 25 μL. Viral stock is then added to the wells at a multiplicity of infection (MOI) of 0.1 in a volume of 25 μL, bringing the total volume of each well to 100 μL. The MOI is calculated using the PFU/mL, or TCID50 if unavailable. Each 96-well plate has a control column of 6 wells with cells and virus but no compound (negative control, max CPE), a column with cells but no compound or virus (positive control, minimum CPE), and a column with no cells or virus or compound (background plate/reagent control). The control wells with cells but no virus are given an additional 25 μL of growth media containing an equal quantity of sucrose as those wells receiving the viral stock in order to keep consistent in media and volume conditions. The outer wells of the plate are filled with 125 μL of moat media (DMEM, 1% Penn/Strep) to act as a thermal and evaporative moat around the test wells. Following a 5-day incubation period, the plates are read using ATPlite (50 uL added per well), which quantifies the amount of ATP (a measure of cell health) present in each well. Assay plates are read using the Envision luminometer. […] EC50 ranges are as follows: A<0.2 μM; B>0.2 μM.
For orientation: ATP-based viability assays read luminescence as a measure of living cells.

The next test has as its system hMPV A2 TN/94-49. Briefly: HMPV antiviral assay Method 2 (LLC-MK2 cells with CP-100-356, ATP-Lite). The class given is cell-based. Conditions: hMPV A2 TN/94-49, LLC-MK2 cells, 4 μM CP-100-356, Method 2. As to the method: In vitro HMPV antiviral activity was evaluated using the clinical isolate A2 strain TN 94-49 (obtained from Dr. John Williams, Vanderbilt University, Tennessee) and LLC-MK2 cells (Millipore Sigma CB_85062804), an immortalized kidney epithelial cell line from Macaca mulatta. Compounds were resuspended in dimethyl sulfoxide (DMSO) at 10 mM, serially diluted and added to a 384-well source plate. Subsequently, the compounds were diluted and transferred onto 384-well assay plates using the Echo-650 automated liquid handling system (Beckman Coulter, Indiana). The test compounds were assessed in duplicate at a top concentration of 200 nM followed by 2.5-fold serial dilutions to give a total of 10 concentration points. DMSO control wells were also included on the assay plates and were either infected or not, acting as positive and negative controls. A2 TN 94-49 virus infections were performed in-suspension with LLC-MK2 cells. The cells were washed twice with PBS and removed from the cell-culture flask with 0.25% trypsin-EDTA (Thermo Fisher Scientific, MA). The trypsin-EDTA was inactivated by resuspending in 2% fetal bovine serum (FBS) and OptiMEM (ThermoFisher Scientific, MA) containing 1% antibiotic-antimycotic. Cells were pelleted by centrifuging for 5 minutes at 800 rpm, the supernatant was removed, and cells were re-suspended and washed in PBS plus 100 μg/mL CaCl2). This step was performed twice. Cells were then re-suspended in serum-free (SF)-OptiMEM containing 4 μg/mL TPCK-Trypsin (Sigma Aldrich, MO), 1% antibiotic-antimycotic (ThermoFisher Scientific, MA), 100 μg/mL CaCl2), and 4 μM of CP-100-356, a P-glycoprotein inhibitor. Cells were counted and seeded at a density of 5,000 cells/well, 12.5 μL/well. Virus infections were done at a multiplicity of infection (MOI) of 0.16 with 12.5 μL added per well. Virus infections were performed in infection media which contained SF-OptiMEM, 100 μg/mL CaCl2) and 1% antibiotic-antimycotic. HMPV viral stocks are suspended in infection media+5% glycerol, thus an equal volume of infection media+5% glycerol was added to uninfected wells to equalize the final % glycerol across all wells of the assay plate. The final concentration of TPCK-trypsin was 2 μg/mL. The final concentration of CP-100-356 was 2 μM. The assay plates were incubated at 37° C., 5% CO2 for 7 days. After 7 days incubation, 12.5 μL of ATP-Lite (PerkinElmer, MA) was added to each well and the raw luminescence values were determined using the Envision 2104 (Perkin Elmer, MA). The average of the raw luminescence values for the cells and virus only positive control wells was subtracted from all conditions tested and the percent cell health was determined by dividing these values by the average of the cells only negative control wells. EC50 values were then calculated by non-linear regression using a four-parameter curve logistic equation. The curve fit model employed was XLFit Dose Response One Site Model 200: y=(A+(B/(1+((x/C)^D)))), where A is the minimum y value, B is the maximum y value, C is the log EC50value, and D is the slope factor.

As for `COc1cc(C(=O)NC[C@@](O)(c2cccc(C(C)=O)c2)c2cc3c(c(-c4cccc(Cl)c4Cl)n2)OC[C@]3(C)C(N)=O)cc2cn(C3CC3)nc12` [Example 493], the concentration giving a half-maximal response (EC50) (in test [1]; in the test with hMPV A2 TN/94-49) was less than 200 nM in each case.

As for `C[C@]1(C(N)=O)COc2c1cc([C@@](O)(CNC(=O)c1cc(Cl)c3nn(C4CC4)cc3c1)c1ccccc1)nc2-c1cc(Cl)c(F)cc1F` [Example 99], the EC50 (in test [1]; with hMPV A2 TN/94-49) was less than 200 nM throughout.

`COc1cc(C(=O)NC[C@@](O)(c2cccc(F)c2)c2cc3c(c(-c4ccc5c(c4Cl)OC(F)(F)O5)n2)OC[C@]3(C)C(N)=O)cc2oc(C)nc12` [Example 285]: the concentration for a half-maximal effect (EC50) (in test [1]; in the test with hMPV A2 TN/94-49) was less than 200 nM each time.

Turning to `COc1cccc([C@](O)(CNC(=O)c2cc(OC)c3nn(C4CC4)cc3c2)c2cc3c(c(-c4cccc(Cl)c4Cl)n2)OC[C@]3(C)C(N)=O)n1` [Example 496], the EC50 (in test [1]; with hMPV A2 TN/94-49) was less than 200 nM each time.

As to `COc1cc(C(=O)NC[C@@](O)(c2cccc(F)c2)c2cc3c(c(-c4cccc(Cl)c4Cl)n2)OC[C@]3(C)C(N)=O)cc2cc(C3CC3)nn12` [Example 336], the EC50 (in test [1]; with hMPV A2 TN/94-49) was less than 200 nM in each case.

For the compound `Cc1nc2c(OC(F)F)cc(C(=O)NC[C@](O)(c3cc4c(c(-c5cc(Cl)c(F)cc5F)n3)OC[C@]4(C)C(N)=O)c3ccccc3F)cc2cc1Br` [Example 139], the EC50 in test [1] was less than 200 nM; with hMPV A2 TN/94-49, more than 200 nM.

For the compound `COc1cc(C(=O)NC[C@@](O)(c2cccc(F)n2)c2cc3c(c(-c4ccc(F)c(Cl)c4Cl)n2)OC[C@]3(C)C(N)=O)cc2cn(C3CC3)nc12` [Example 340], the EC50 (in test [1]; in the test with hMPV A2 TN/94-49) was less than 200 nM each time.

As to `COc1cc(C(=O)NC[C@@](O)(c2cccc(F)n2)c2cc3c(c(-c4cc(Cl)c(F)cc4F)n2)OC[C@]3(C)C(N)=O)cc2cc(C3CC3)nn12` [Example 206], the EC50 (in test [1]; with hMPV A2 TN/94-49) was less than 200 nM each time.

In the case of `COc1cc(C(=O)NC[C@@](O)(c2cc[nH]c(=O)c2)c2cc3c(c(-c4cc(Cl)c(F)cc4F)n2)OC[C@]3(C)C(N)=O)cc2cn(C3CC3)nc12` [Example 504], the EC50 in test [1] is less than 200 nM; in the test on hMPV A2 TN/94-49, more than 200 nM.

As for `COc1cc(C(=O)NC[C@@](O)(c2ccccc2)c2cc3c(c(-c4cc(C(F)(F)F)c(F)cc4F)n2)OC[C@]3(C)C(N)=O)cc2cn(C3(F)CC3)nc12` [Example 303], the EC50 (in test [1]; in the test on hMPV A2 TN/94-49) was less than 200 nM in each case.

Regarding `COc1cc(C(=O)NC[C@@](O)(c2ccnc(C#N)c2)c2cc3c(c(-c4cc(Cl)c(F)cc4F)n2)OC[C@]3(C)C(N)=O)cc2cn(C3CC3)nc12` [Example 501], the EC50 (in test [1]; with hMPV A2 TN/94-49) was less than 200 nM throughout.

Consider `COc1cc(C(=O)NC[C@@](O)(c2ccc(S(C)(=O)=O)cc2)c2cc3c(c(-c4cc(Cl)c(F)cc4F)n2)OC[C@]3(C)C(N)=O)cc2cn(C3CC3)nc12` [Example 482], for which the EC50 in test [1] was less than 200 nM; in the test on hMPV A2 TN/94-49, more than 200 nM.

In the case of `C[C@]1(C(N)=O)COc2c1cc([C@@](O)(CNC(=O)c1ccc3nc(C4CC4)oc3c1)c1ccccc1)nc2-c1cccc(Cl)c1Cl` [Example 97], the EC50 (in test [1]; in the test on hMPV A2 TN/94-49) was less than 200 nM in each case.

For `Cc1nc2ccc(C(=O)NC[C@@](O)(c3ccccc3)c3cc4c(c(-c5cc(F)c(F)cc5F)n3)OC[C@]4(C)C(N)=O)cc2o1` [Example 192], the EC50 (in test [1]; in the test on hMPV A2 TN/94-49) was less than 200 nM each time.

For `C[C@]1(C(N)=O)COc2c1cc([C@@](O)(CNC(=O)c1ccc3nc(C4CC4)oc3c1)c1cccc(F)c1)nc2-c1cc(C(F)(F)F)c(F)cc1F` [Example 308], the EC50 in test [1] was less than 200 nM; in the test on hMPV A2 TN/94-49, more than 200 nM.

`COc1cc(C(=O)NC[C@@](O)(c2ccccc2)c2cc3c(c(-c4cc(Cl)c(F)cc4F)n2)OC[C@]3(C)C(N)=O)cc(O)c1NC(=O)C1(F)CC1` [Example 242] had an EC50 in the test with hMPV A2 TN/94-49 of more than 200 nM.

`C[C@]1(C(N)=O)COc2c1cc([C@@](O)(CNC(=O)c1ccc3nc(C4CC4)oc3c1)c1ccccc1)nc2-c1cc(F)c(F)cc1F` [Example 194]: in the test with hMPV A2 TN/94-49, the EC50 was less than 200 nM.

`COc1cc(C(=O)NCC(O)(c2ccccc2)c2cc3c(c(-c4ccc(F)cc4)n2)OC[C@]3(C)C(N)=O)cc2cn(C3(F)CC3)nc12` (some centres unmarked) [Example 361] had an EC50 with hMPV A2 TN/94-49 of more than 200 nM.

`COc1cc(OC)c2cc(C(=O)NC[C@@](O)(c3ccccc3)c3cc4c(c(-c5cc(Cl)c(F)cc5F)n3)OC[C@]4(C)C(N)=O)[nH]c2c1` [Example 94] displayed an EC50 in the test on hMPV A2 TN/94-49 of more than 200 nM.

With `C[C@]1(C(N)=O)COc2c1cc([C@@](O)(CNC(=O)c1cc(C(F)F)c3nn(C4CC4)cc3c1)c1ccccc1)nc2-c1cc(Cl)c(F)cc1F` [Example 229], the EC50 in the test with hMPV A2 TN/94-49 is less than 200 nM.

Turning to `Cc1nc2c(OC(F)(F)F)cc(C(=O)NC[C@@](O)(c3ccccc3)c3cc4c(c(-c5cc(Cl)c(F)cc5F)n3)OC[C@]4(C)C(N)=O)cc2s1` [Example 188], in the test with hMPV A2 TN/94-49, the EC50 is more than 200 nM.

With `COc1cc(C(=O)NC[C@@](O)(c2ccccc2)c2cc3c(c(-c4cc(S(C)(=O)=O)ccc4F)n2)OC[C@]3(C)C(N)=O)cc2cn(C3(F)CC3)nc12` [Example 372], the EC50 in the test with hMPV A2 TN/94-49 is more than 200 nM.

In the case of `C[C@]1(C(N)=O)COc2c1cc([C@@](O)(CNC(=O)c1ccc3nc(C4CC4)oc3c1)c1ccccc1)nc2-c1ccc2c(c1)OC(F)(F)O2` [Example 199], the EC50 in the test on hMPV A2 TN/94-49 was more than 200 nM.

As for `COc1cc(C(=O)NC[C@@](O)(c2ccccc2)c2cc3c(c(-c4ccc5c(c4)OC(F)(F)O5)n2)OC[C@]3(C)C(N)=O)cc2oc(C)nc12` [Example 201], the EC50 in the test with hMPV A2 TN/94-49 is less than 200 nM.

In the test with hMPV A2 TN/94-49, `C[C@]1(C(N)=O)COc2c1cc([C@@](O)(CNC(=O)c1cc(OC(F)F)c3nc(C4CC4)oc3c1)c1ccccc1)nc2-c1cc(Cl)c(F)cc1F` [Example 216] registered an EC50 of less than 200 nM.

`COc1cc(C(=O)NC[C@@](O)(c2ccccc2)c2cc3c(c(-c4cccc(F)c4F)n2)OC[C@]3(C)C(N)=O)cc2cn(C3(F)CC3)nc12` [Example 367] yielded an EC50 in the test on hMPV A2 TN/94-49 of less than 200 nM.

As to `C[C@]1(C(N)=O)COc2c1cc([C@@](O)(CNC(=O)c1cc(OC3CC3)c3nc(C4CC4)oc3c1)c1ccccc1)nc2-c1cc(Cl)c(F)cc1F` [Example 233], in the test with hMPV A2 TN/94-49, the EC50 is less than 200 nM.

Regarding `COc1cc(C(=O)NCC(O)(c2ccccc2)c2cc3c(c(-c4ccc(F)c(Cl)c4)n2)OC[C@]3(C)C(N)=O)cc2cn(C3(F)CC3)nc12` (some centres unmarked) [Example 362], the EC50 in the test on hMPV A2 TN/94-49 was less than 200 nM.

`COc1cc(C(=O)NC[C@@](O)(c2ccccc2)c2cc3c(c(-c4cc(Cl)ccc4F)n2)OC[C@]3(C)C(N)=O)cc2oc(C3CC3)nc12` [Example 331] registered an EC50 with hMPV A2 TN/94-49 of less than 200 nM.

As a reminder, the EC50 is the concentration giving half of the maximal effect. Low values mean higher potency in that assay, high ones lower potency in that assay.
